Source: patent US20070269492A1, “New product and use and manufacture thereof” (priority 2006, published 2007)
Read-outs that look alike come from different tables or passages of the source.

How the values were obtained:
[1] = Description: Absorption of nicotine from the oral cavity to the systemic circulation is dependent on the pH of the saliva, pH of the blood plasma and the pKa of nicotine, which is about 7.8. Assuming a pH of the saliva of 6.8, only about 10% of the nicotine will be in the free base form. Thus, in order to promote absorption of nicotine in a free base form, which is the form predominantly absorbed through the mucosa, the pH of the saliva must preferably be increased to at least pH 7 and to at most pH 10, more preferably to at least pH 8 and at most pH 9.5. At a pH of 8.8 about 90% of the nicotine will then be in the free base form.
[2] = cited from earlier work

CN1CCCC1c1cccnc1 (stereo not drawn) [nicotine, 3-(1-methyl-2-pyrrolidinyl)-pyridine]
nicotine in the free base form ([1]; pH 8.8): about 90% | nicotine in the free base form ([1]; saliva pH 6.8): about 10% | single dose able to kill an adult [2]: Approximately 40 milligrams
